Experimental data published in ChEMBL document CHEMBL3608308, “Design, synthesis and antiproliferative activity of novel heterobivalent hybrids based on imidazo[2,1-b][1,3,4]thiadiazole and imidazo[2,1-b][1,3]thiazole scaffolds” (Eur J Med Chem, 2015).
The source made the active and inactive calls. The rule behind the calls is not given here.

Assays:
L1210 [1] = assay: Cytotoxicity against mouse L1210 cells; assay type: functional, cell-based
U-937 [2] = assay: Induction of apoptosis in human U937 cells assessed as cleavage of pro-caspase-8 at 3 uM incubated for 8 hrs by immunoblot method; assay type: functional, cell-based
HL-60 [3] = assay: Induction of DNA laddering in human HL60 cells at 3 to 10 uM incubated for 24 hrs by ethidium bromide staining based gel electrophoresis method; assay type: functional, cell-based
HeLa = assay: Antiproliferative activity against human HeLa cells assessed as inhibition of cell proliferation incubated for 4 days by Coulter counter based assay; assay type: functional; details: 96 h
CCRF-CEM = assay: Antiproliferative activity against human CEM cells assessed as inhibition of cell proliferation incubated for 3 days by Coulter counter based assay; assay type: functional; details: 72 h
U-937 [4] = assay: Induction of apoptosis in human U937 cells assessed as induction of cell shrinkage at 3 uM incubated for 8 hrs by Hoechst 33258 staining based fluorescent microscopy; assay type: functional
HL-60 [5] = assay: Cytotoxicity against human HL60 cells assessed as reduction in cell viability incubated for 72 hrs by MTT assay; assay type: functional, cell-based; details: for IC50: HL-60, 72 h
HL-60 [6] = assay: Induction of apoptosis in human HL60 cells assessed as cleavage of pro-caspase-3/7 activity at 3 uM incubated for 8 hrs DEVD-pNA chromogenic substrate proteolytic cleavage assay; assay type: functional
U-937 [7] = assay: Induction of apoptosis in human U937 cells over-expressing human Bcl-2 assessed as induction of morphological changes by inverted phase contrast microscopy; assay type: functional, cell-based
HL-60 [8] = assay: Induction of apoptosis in human HL60 cells assessed as hypodiploid cells level at 1 and 10 uM incubated for 24 hrs by propidium iodide staining based flow cytometry; assay type: functional, cell-based
HL-60 [9] = assay: Induction of apoptosis in human HL60 cells assessed as hypodiploid cells level at 1 uM incubated for 24 hrs by propidium iodide staining based flow cytometry relative to untreated control; assay type: functional
U-937 [10] = assay: Induction of apoptosis in human U937 cells assessed as increase in cytochrome c release into cytosol at 3 uM incubated for 8 hrs by immunoblot method; assay type: functional, cell-based
HL-60 [11] = assay: Induction of apoptosis in human HL60 cells assessed as increase in cytochrome c release into cytosol at 3 uM incubated for 8 hrs by immunoblot method; assay type: functional, cell-based
L1210 [12] = assay: Antiproliferative activity against mouse L1210 cells assessed as inhibition of cell proliferation incubated for 2 days by Coulter counter based assay; assay type: functional; details: L1210, 48 h
U-937 [13] = assay: Induction of apoptosis in human U937 cells assessed as cleavage of pro-caspase-9 at 3 uM incubated for 8 hrs by immunoblot method; assay type: functional, cell-based
U-937 [14] = assay: Induction of apoptosis in human U937 cells assessed as cleavage of pro-caspase-3 at 3 uM incubated for 8 hrs by immunoblot method; assay type: functional, cell-based
U-937 [15] = assay: Induction of apoptosis in human U937 cells assessed as induction of morphological changes by inverted phase contrast microscopy; assay type: functional, cell-based
U-937 [16] = assay: Induction of apoptosis in human U937 cells assessed as induction of increase in condensed and fragmented chromatin at 3 uM incubated for 8 hrs by Hoechst 33258 staining based fluorescent microscopy; assay type: functional, cell-based
U-937 [17] = assay: Cytotoxicity against human U937 cells over-expressing human Bcl-2 assessed as reduction in cell viability incubated for 72 hrs by MTT assay; assay type: functional, cell-based; details: for IC50: U-937, 72 h
U-937 [18] = assay: Induction of apoptosis in human U937 cells over-expressing human Bcl-2 assessed as induction of increase in apoptotic bodies at 3 uM incubated for 8 hrs by Hoechst 33258 staining based fluorescent microscopy; assay type: functional, cell-based
HL-60 [19] = assay: Induction of apoptosis in human HL60 cells assessed as cleavage of pro-caspase-8 at 3 uM incubated for 8 hrs by immunoblot method; assay type: functional, cell-based
U-937 [20] = assay: Induction of apoptosis in human U937 cells assessed as induction of increase in apoptotic bodies at 3 uM incubated for 8 hrs by Hoechst 33258 staining based fluorescent microscopy; assay type: functional, cell-based
U-937 [21] = assay: Induction of apoptosis in human U937 cells over-expressing human Bcl-2 assessed as induction of increase in condensed and fragmented chromatin at 3 uM incubated for 8 hrs by Hoechst 33258 staining based fluorescent microscopy; assay type: functional, cell-based
U-937 [22] = assay: Induction of apoptosis in human U937 cells over-expressing human Bcl-2 assessed as increase in cytochrome c release into cytosol at 3 uM incubated for 8 hrs by immunoblot method; assay type: functional, cell-based
HL-60 [23] = assay: Induction of apoptosis in human HL60 cells assessed as cleavage of pro-caspase-3 at 3 uM incubated for 8 hrs by immunoblot method; assay type: functional, cell-based
U-937 [24] = assay: Cytotoxicity against human U937 cells assessed as reduction in cell viability incubated for 72 hrs by MTT assay; assay type: functional, cell-based; details: for IC50: U-937, 72 h
FM3A = assay: Antiproliferative activity against mouse FM3A cells assessed as inhibition of cell proliferation incubated for 2 days by Coulter counter based assay; assay type: functional; details: 48 h
U-937 [25] = assay: Induction of apoptosis in human U937 cells over-expressing human Bcl-2 assessed as induction of cell shrinkage at 3 uM incubated for 8 hrs by Hoechst 33258 staining based fluorescent microscopy; assay type: functional
HL-60 [26] = assay: Induction of apoptosis in human HL60 cells assessed as induction of morphological changes by inverted phase contrast microscopy; assay type: functional, cell-based
HL-60 [27] = assay: Induction of apoptosis in human HL60 cells assessed as cleavage of pro-caspase-9 at 3 uM incubated for 8 hrs by immunoblot method; assay type: functional, cell-based
HL-60 [28] = assay: Induction of apoptosis in human HL60 cells assessed as hypodiploid cells level at 1 uM incubated for 24 hrs by propidium iodide staining based flow cytometry (reference value: 2.6 +/- 0.6%); assay type: functional
SK-MEL-1 = assay: Cytotoxicity against human SK-MEL-1 cells assessed as reduction in cell viability incubated for 72 hrs by MTT assay; assay type: functional, cell-based; details: for IC50: SK-MEL-1, 72 h

## C=C(Br)C(=O)O
L1210 [1]
  IC50: > 120000 nM

## C=C(Br)C(=O)Nc1cccc(-c2cn3nc(-c4cccs4)sc3n2)c1
U-937 [2]
  Activity: Active
HL-60 [3]
  Activity: inactive
HeLa
  IC50: 670 nM
CCRF-CEM
  IC50: 410 nM
U-937 [4]
  Activity: Active
HL-60 [5]
  Activity: Dose-dependent effect
  IC50: 380 nM
HL-60 [6]
  fold change (FC): 3
U-937 [7]
  Activity: Active
HL-60 [8]
  Activity: Dose-dependent effect
HL-60 [9]
  fold change (FC): 5.6
U-937 [10]
  Activity: Active
HL-60 [11]
  Activity: Active
L1210 [12]
  IC50: 170 nM
U-937 [13]
  Activity: Active
U-937 [14]
  Activity: Active
U-937 [15]
  Activity: Active
U-937 [16]
  Activity: Active
U-937 [17]
  Activity: Dose-dependent effect
  IC50: 270 nM
U-937 [18]
  Activity: Active
HL-60 [19]
  Activity: Active
U-937 [20]
  Activity: Active
U-937 [21]
  Activity: Active
U-937 [22]
  Activity: Active
HL-60 [23]
  Activity: Active
U-937 [24]
  Activity: Dose-dependent effect
  IC50: 570 nM
FM3A
  IC50: 370 nM
U-937 [25]
  Activity: Active
HL-60 [26]
  Activity: Active
HL-60 [27]
  Activity: Active
HL-60 [28]
  Activity: 14.5%
SK-MEL-1
  Activity: Dose-dependent effect
  IC50: 690 nM

## C=C(Br)C(=O)Nc1cccc(-c2cn3nc(-c4ccc(F)cc4)sc3n2)c1
U-937 [2]
  Activity: Active
HL-60 [3]
  Activity: inactive
HeLa
  IC50: 870 nM
CCRF-CEM
  IC50: 830 nM
U-937 [4]
  Activity: Active
HL-60 [5]
  Activity: Dose-dependent effect
  IC50: 530 nM
HL-60 [6]
  fold change (FC): 2.3
U-937 [7]
  Activity: Active
HL-60 [8]
  Activity: Dose-dependent effect
HL-60 [9]
  fold change (FC): 4.6
U-937 [10]
  Activity: Active
HL-60 [11]
  Activity: Active
L1210 [12]
  IC50: 250 nM
U-937 [13]
  Activity: Active
U-937 [14]
  Activity: Active
U-937 [15]
  Activity: Active
U-937 [16]
  Activity: Active
U-937 [17]
  Activity: Dose-dependent effect
  IC50: 370 nM
U-937 [18]
  Activity: Active
HL-60 [19]
  Activity: Active
U-937 [20]
  Activity: Active
U-937 [21]
  Activity: Active
U-937 [22]
  Activity: Active
HL-60 [23]
  Activity: Active
U-937 [24]
  Activity: Dose-dependent effect
  IC50: 560 nM
FM3A
  IC50: 610 nM
U-937 [25]
  Activity: Active
HL-60 [26]
  Activity: Active
HL-60 [27]
  Activity: Active
HL-60 [28]
  Activity: 12.1%
SK-MEL-1
  Activity: Dose-dependent effect
  IC50: 1100 nM

## C=C(Br)C(=O)Nc1cccc(-c2cn3c(-c4ccc(OC)cc4)csc3n2)c1
U-937 [2]
  Activity: Active
HL-60 [3]
  Activity: inactive
HeLa
  IC50: 860 nM
CCRF-CEM
  IC50: 500 nM
U-937 [4]
  Activity: Active
HL-60 [5]
  Activity: Dose-dependent effect
  IC50: 610 nM
HL-60 [6]
  fold change (FC): 3.8
U-937 [7]
  Activity: Active
HL-60 [8]
  Activity: Dose-dependent effect
HL-60 [9]
  fold change (FC): 4
U-937 [10]
  Activity: Active
HL-60 [11]
  Activity: Active
L1210 [12]
  IC50: 200 nM
U-937 [13]
  Activity: Active
U-937 [14]
  Activity: Active
U-937 [15]
  Activity: Active
U-937 [16]
  Activity: Active
U-937 [17]
  Activity: Dose-dependent effect
  IC50: 370 nM
U-937 [18]
  Activity: Active
HL-60 [19]
  Activity: Active
U-937 [20]
  Activity: Active
U-937 [21]
  Activity: Active
U-937 [22]
  Activity: Active
HL-60 [23]
  Activity: Active
U-937 [24]
  Activity: Dose-dependent effect
  IC50: 630 nM
FM3A
  IC50: 620 nM
U-937 [25]
  Activity: Active
HL-60 [26]
  Activity: Active
HL-60 [27]
  Activity: Active
HL-60 [28]
  Activity: 11.1%
SK-MEL-1
  Activity: Dose-dependent effect
  IC50: 1000 nM
